Laboratory results: PubChem BioAssay (NCI)
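Each compound was tested at five concentrations against cells in 96-well plates for 48 hours. TGI marks complete inhibition of growth.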

Assays:
Assay in all cases: NCI anticancer screen, dose series, 48 h
786-0 renal = system: 786-0 renal
A498 renal = system: A498 renal
A549 NSCLC = system: A549 NSCLC
BT-549 breast = system: BT-549 breast
CAKI-1 renal = system: CAKI-1 renal
CCRF-CEM leukemia = system: CCRF-CEM leukemia
COLO 205 colon = system: COLO 205 colon
DU-145 prostate = system: DU-145 prostate
EKVX NSCLC = system: EKVX NSCLC
HCC-2998 colon = system: HCC-2998 colon
HCT-116 colon = system: HCT-116 colon
HCT-15 colon = system: HCT-15 colon
HL-60(TB) leukemia = system: HL-60(TB) leukemia
HS 578T breast = system: HS 578T breast
HT29 colon = system: HT29 colon
IGROV1 ovarian = system: IGROV1 ovarian
K-562 leukemia = system: K-562 leukemia
KM12 colon = system: KM12 colon
LOX IMVI melanoma = system: LOX IMVI melanoma
M14 melanoma = system: M14 melanoma
MALME-3M melanoma = system: MALME-3M melanoma
MCF7 breast = system: MCF7 breast
MDA-MB-231 breast = system: MDA-MB-231 breast
MDA-MB-435 = system: MDA-MB-435
MDA-N = system: MDA-N
MOLT-4 leukemia = system: MOLT-4 leukemia
NCI-H226 lung = system: NCI-H226 lung
NCI-H23 lung = system: NCI-H23 lung
NCI-H460 lung = system: NCI-H460 lung
NCI-H522 lung = system: NCI-H522 lung
NCI/ADR-RES ovarian = system: NCI/ADR-RES ovarian
OVCAR-3 ovarian = system: OVCAR-3 ovarian
OVCAR-4 ovarian = system: OVCAR-4 ovarian
OVCAR-5 ovarian = system: OVCAR-5 ovarian
OVCAR-8 ovarian = system: OVCAR-8 ovarian
PC-3 prostate = system: PC-3 prostate
RPMI-8226 leukemia = system: RPMI-8226 leukemia
RXF 393 renal = system: RXF 393 renal
SF-268 CNS = system: SF-268 CNS
SF-539 CNS = system: SF-539 CNS
SK-MEL-2 melanoma = system: SK-MEL-2 melanoma
SK-MEL-28 melanoma = system: SK-MEL-28 melanoma
SK-MEL-5 melanoma = system: SK-MEL-5 melanoma
SK-OV-3 ovarian = system: SK-OV-3 ovarian
SN12C renal = system: SN12C renal
SNB-19 CNS = system: SNB-19 CNS
SNB-75 CNS = system: SNB-75 CNS
SR leukemia = system: SR leukemia
SW-620 colon = system: SW-620 colon
T-47D breast = system: T-47D breast
TK-10 renal = system: TK-10 renal
U251 CNS = system: U251 CNS
UACC-257 melanoma = system: UACC-257 melanoma
UACC-62 melanoma = system: UACC-62 melanoma
UO-31 renal = system: UO-31 renal
ACHN renal = system: ACHN renal
HOP-62 NSCLC = system: HOP-62 NSCLC
HOP-92 NSCLC = system: HOP-92 NSCLC

CO/N=C1/C(n2[nH]c(=O)n(-c3ccccc3)c2=O)C2C=CC1n1c(=O)n(-c3ccccc3)c(=O)n12 (configuration not stated)
TGI (786-0 renal): > 100 µM
TGI (A498 renal): > 100 µM
TGI (A549 NSCLC): > 100 µM
TGI (BT-549 breast): > 100 µM
TGI (CAKI-1 renal): > 100 µM
TGI (CCRF-CEM leukemia): > 100 µM
TGI (COLO 205 colon): > 100 µM
TGI (DU-145 prostate): > 100 µM
TGI (EKVX NSCLC): > 100 µM
TGI (HCC-2998 colon): > 100 µM
TGI (HCT-116 colon): > 100 µM
TGI (HCT-15 colon): > 100 µM
TGI (HL-60(TB) leukemia): > 100 µM
TGI (HS 578T breast): > 100 µM
TGI (HT29 colon): > 100 µM
TGI (IGROV1 ovarian): > 100 µM
TGI (K-562 leukemia): > 100 µM
TGI (KM12 colon): > 100 µM
TGI (LOX IMVI melanoma): > 100 µM
TGI (M14 melanoma): > 100 µM
TGI (MALME-3M melanoma): > 100 µM
TGI (MCF7 breast): > 100 µM
TGI (MDA-MB-231 breast): > 100 µM
TGI (MDA-MB-435): > 100 µM
TGI (MDA-N): > 100 µM
TGI (MOLT-4 leukemia): > 100 µM
TGI (NCI-H226 lung): > 100 µM
TGI (NCI-H23 lung): > 100 µM
TGI (NCI-H460 lung): > 100 µM
TGI (NCI-H522 lung): > 100 µM
TGI (NCI/ADR-RES ovarian): > 100 µM
TGI (OVCAR-3 ovarian): > 100 µM
TGI (OVCAR-4 ovarian): > 100 µM
TGI (OVCAR-5 ovarian): > 100 µM
TGI (OVCAR-8 ovarian): > 100 µM
TGI (PC-3 prostate): > 100 µM
TGI (RPMI-8226 leukemia): > 100 µM
TGI (RXF 393 renal): > 100 µM
TGI (SF-268 CNS): > 100 µM
TGI (SF-539 CNS): > 100 µM
TGI (SK-MEL-2 melanoma): > 100 µM
TGI (SK-MEL-28 melanoma): > 100 µM
TGI (SK-MEL-5 melanoma): > 100 µM
TGI (SK-OV-3 ovarian): > 100 µM
TGI (SN12C renal): > 100 µM
TGI (SNB-19 CNS): > 100 µM
TGI (SNB-75 CNS): > 100 µM
TGI (SR leukemia): > 100 µM
TGI (SW-620 colon): > 100 µM
TGI (T-47D breast): > 100 µM
TGI (TK-10 renal): > 100 µM
TGI (U251 CNS): > 100 µM
TGI (UACC-257 melanoma): > 100 µM
TGI (UACC-62 melanoma): > 100 µM
TGI (UO-31 renal): > 100 µM

C=C1C(C[C@@H]2O[C@H]3C[C@H]4O[C@@]5(C[C@@H]6O[C@]7(C[C@H](C)[C@@H]8O[C@@H]9CC(C(O)CO)O[C@@H]9C[C@@H]8O7)C[C@H](C)[C@@H]6O5)C[C@H]4O[C@H]3[C@H](C)[C@H]2O)O[C@@H](CC[C@@H]2O[C@@H](CC[C@@]34CC5O[C@H]6C(O[C@H]7CC[C@H](CC(=O)OC)O[C@@H]7[C@@H]6O3)[C@H]5O4)CC2=C)C[C@H]1C (some centres not stated)
TGI (A549 NSCLC): > 0.783 µM
TGI (ACHN renal): > 1 µM
TGI (BT-549 breast): 0.00316 µM
TGI (CAKI-1 renal): > 1 µM
TGI (CCRF-CEM leukemia): > 1 µM
TGI (COLO 205 colon): 0.0035 µM
TGI (EKVX NSCLC): > 1 µM
TGI (HCT-15 colon): 0.0209 µM
TGI (HL-60(TB) leukemia): > 1 µM
TGI (HOP-62 NSCLC): > 1 µM
TGI (HOP-92 NSCLC): > 1 µM
TGI (IGROV1 ovarian): 0.579 µM
TGI (K-562 leukemia): > 1 µM
TGI (LOX IMVI melanoma): > 0.292 µM
TGI (M14 melanoma): > 1 µM
TGI (MCF7 breast): > 1 µM
TGI (MDA-MB-435): 0.000183 µM
TGI (MDA-N): 0.000124 µM
TGI (MOLT-4 leukemia): > 1 µM
TGI (NCI-H226 lung): 0.0248 µM
TGI (NCI/ADR-RES ovarian): 0.0772 µM
TGI (OVCAR-3 ovarian): > 1 µM
TGI (OVCAR-4 ovarian): > 1 µM
TGI (OVCAR-5 ovarian): > 1 µM
TGI (OVCAR-8 ovarian): 0.0125 µM
TGI (PC-3 prostate): > 1 µM
TGI (RXF 393 renal): > 1 µM
TGI (SF-268 CNS): > 1 µM
TGI (SK-MEL-28 melanoma): > 1 µM
TGI (SK-MEL-5 melanoma): 0.0559 µM
TGI (SK-OV-3 ovarian): > 1 µM
TGI (SN12C renal): > 1 µM
TGI (SNB-19 CNS): > 1 µM
TGI (SNB-75 CNS): > 1 µM
TGI (SR leukemia): > 1 µM
TGI (SW-620 colon): > 1 µM
TGI (T-47D breast): > 1 µM
TGI (TK-10 renal): > 1 µM
TGI (U251 CNS): > 1 µM
TGI (UACC-257 melanoma): > 1 µM
TGI (UACC-62 melanoma): > 1 µM
TGI (UO-31 renal): > 1 µM
